Measurements from patent US20220397566A1, “GAMMA-SECRETASE STABILIZING COMPOUND SCREENING ASSAY” (VIB VZW, priority 2019, published 2022).

Columns and labels:
Format in all cases: cell-based, mouse
g-secretase subunits = target: T1, g-secretase subunits (Homo sapiens, UniProt P49768); assay: Expression of g-secretase subunits (Western blot); settings: 1 μM DAPT; data not shown
T1 construct: expressed in transfected cells
Procedure: First, in the PSEN1 KO mouse embryonic fibroblasts (MEFs) rescued with EGFP-PSEN1 (see Example 1) the expression of the g-secretase subunits was tested and found not affected by administering any of the 12 compounds, including DAPT that was used as positive control (data not shown).
Protein concentrations were determined by the Bio-Rad DC protein assay (Bio-Rad). Samples were separated by SDS-PAGE (4-12% Bis-Tris NuPAGE gels in MES running buffer (ThermoFisher Scientific) and transferred onto nitrocellulose membranes (ThermoFisher Scientific). After blocking in 5% non-fat milk, membranes were incubated with primary antibody (4° C., overnight) followed by washing and incubation with horseradish peroxidase (HRP)-conjugated secondary antibodies (1 h, room temperature). After final washing, immunodetection was done using enhanced chemiluminescence (Western Lightning-Plus ECL, PerkinElmer), and immunoreactive protein bands were digitally captured and quantified on a Fuji MiniLAS 3000 imager (Fuji, Dusseldorf, Germany) using Aida Image Analyzer software (Raytest, Germany). Data are represented as mean±SEM of at least three independent experiments.

transferrin receptor = assay: Cell surface biotinylation internalization assay, transferrin receptor; settings: 16 h time point, DAPT 1 μM
Procedure: (§1) All reagents, except otherwise stated, were kept on ice. Cells (450.000 cells for 1 h kinetic and 300.000 cells for 16 h) were plated on 6-cm dishes. 48 h after plating, cells were placed on ice, washed in PBS (pH 8) and next incubated in PBS (pH 8) supplemented with 0.25 mg/ml sulfo-NHS-SS-Biotin (Pierce) (10 min at 4° C.). Excess of biotin was washed out with PBS and cells were incubated in quench buffer (0.5% BSA, 100 mM Glycine in PBS) for 15 min at 4° C. Cells were then washed with PBS and incubated at 37° C. in complete pre-warmed medium (with or without DAPT 1 μM) for the appropriate time or kept at 4° C. as a control. Endocytosis was quickly stopped by placing the dishes back on ice and washing the cells with ice-cold PBS. Remaining biotin at the cell surface was cleaved off by incubating the cells twice in PBS containing 100 mM 2-sodium-2-mercaptoethanesulfonate (Sigma) as a reducing agent (15 min at 4° C.). […] Total protein was measured and biotinylated proteins were pulled down from equal amounts of extracts using streptavidin Sepharose beads (Pierce) (4° C., overnight on a rotation wheel). […] To evaluate the internalized pool for each protein to total cell surface, the (R37-R0)/NR*100 ratio for each time point were quantified. For the 16 h time point, the R37/NR*100 were quantified for each condition. […]

NCT = assay: Cell surface biotinylation internalization assay, NCT; settings: DAPT 1 μM
Procedure: as §1

[1] = target: T2, PSEN1/g-secretase complex (Homo sapiens, UniProt P49768); assay: Relocation of GFP-PSEN1/g-secretase to LAMP1-positive late endosomes (confocal immunofluorescence)
T2 construct: expressed in transfected cells
Procedure: We now questioned whether g-secretase inhibitors would affect subcellular distribution of g-secretase complexes as well. We made use of mouse embryonic fibroblasts (MEFs) in which both PSEN1 an PSEN2 are knocked-out (dKO), rescued with either EGFP-PSEN1 or EGFP-PSEN2 (FIG. 1A). […] The dKO MEFs were then incubated overnight with N—[N-(3,5-difluorophenacetyl)-L-alanyl]-S-phenylglycine t-butyl ester (DAPT). DAPT is a non-transition state analogue (TSA) g-secretase inhibitor that is widely used (Dovey et al 2001 J Neurochem 76).
All culture media and sera are from ThermoFisher Scientific. Mouse embryonic fibroblasts (MEFs), PSEN1 knock-out (1 ko), PSEN1 and PSEN2 double knock-out (dKO, Herreman et al 2000 Nat Cell Biol 2), rescued 1 ko and dKO cell lines cells were routinely grown in Dulbecco's modified Eagle's medium (DMEM/F12) supplemented with 10% fetal calf serum (FCS). All cell lines were maintained in a humidified chamber with 5% CO2 at 37° C. Primary hippocampal neuron cultures are derived from E18 rat embryos (Esselens et al 2004 J Cell Biol 166). Stable rescued 1 ko and dKO cell lines were generated using replication-defective recombinant retroviral system (pMCSV vector, Clontech) expressing the gene of interest.
Cells were plated on glass coverslips, transfected 24 h later and processed for indirect immunolabeling the next day (Sannerud et al 2011 Proc Natl Acad Sci USA 108). Images were captured on a confocal microscope (Leica TCS SP5 II, Leica Microsystems) connected to an upright microscope, using an oil-immersion plan Apo 60× A/1.40 NA objective lens. Image acquisition was performed with LAS (Leica Microsystems). Images were further processed with ImageJ and PhotoshopCS6 (Adobe, Calif.). ImageJ software with the plugin JACoP (Bolte and Cordelieres 2006 J Microsc 224) was used for signal overlap quantification (Mander's coefficient). Images were acquired with identical settings and regions of interest (ROI) covering whole cells were used for quantification.

C[C@H](NC(=O)Cc1cc(F)cc(F)c1)C(=O)N[C@H](C(=O)OC(C)(C)C)c1ccccc1 [DAPT, N—[N-(3,5-difluorophenacetyl)-L-alanyl]-S-phenylglycine t-butyl ester]
steady state of PSEN1 or PSEN2 protein levels (g-secretase subunits): no measurable effect | biotinylated transferrin receptor pulled down (transferrin receptor): no differences were found | internalized NCT (internalization kinetics) (NCT; 5, 10, 30 and 60 min): did not reveal significant differences in internalized NCT | amount of biotinylated NCT pulled down (NCT; 16 h time point): doubling of the amount of biotinylated NCT | EGFP-PSEN1 in LAMP1-positive organelles, Mander's coefficient ([1]; 1 μM, 16 hrs, PSEN1/PSEN2 dKO MEFs rescued with EGFP-PSEN1): threefold increase | increase in ratio of EGFP-PSEN1 fluorescence within LAMP1-positive compartments over total EGFP-PSEN1 ([1]; 1 μM, 16 hrs, dKO MEFs rescued with EGFP-PSEN1): 50% | translocation of the PSEN1/g-secretase complex to the late endosomes (Rel MFI) ([1]; 1 μM, FIG. 8): induce a translocation of the PSEN1/g-secretase complex to the late endosomes | reversibility of late endosomal relocation after wash-out ([1]; DAPT-containing medium replaced with fresh medium, 16 hrs): fully reversible | dose dependence of PSEN1/g-secretase relocation ([1]; between 1 and 1000 nM): clear dose response | fold increase by which PSEN1/g-secretase relocates ([1]; dose response, normalised to DMSO): almost two-fold
